Values quoted from earlier work in patent US7994166B2, “Pyrrolidinone benzenesulfonamide derivatives as modulators of ion channels for the treatment of pain” (Vertex Pharmaceuticals Incorporated, priority 2007, dated 2011).

Molecular target: NaV1.8 (Homo sapiens, UniProt Q9Y5Y9)
Details: read-out: TTX IC50

NaV1.8, sequence (Q9Y5Y9 whole entry, looked up): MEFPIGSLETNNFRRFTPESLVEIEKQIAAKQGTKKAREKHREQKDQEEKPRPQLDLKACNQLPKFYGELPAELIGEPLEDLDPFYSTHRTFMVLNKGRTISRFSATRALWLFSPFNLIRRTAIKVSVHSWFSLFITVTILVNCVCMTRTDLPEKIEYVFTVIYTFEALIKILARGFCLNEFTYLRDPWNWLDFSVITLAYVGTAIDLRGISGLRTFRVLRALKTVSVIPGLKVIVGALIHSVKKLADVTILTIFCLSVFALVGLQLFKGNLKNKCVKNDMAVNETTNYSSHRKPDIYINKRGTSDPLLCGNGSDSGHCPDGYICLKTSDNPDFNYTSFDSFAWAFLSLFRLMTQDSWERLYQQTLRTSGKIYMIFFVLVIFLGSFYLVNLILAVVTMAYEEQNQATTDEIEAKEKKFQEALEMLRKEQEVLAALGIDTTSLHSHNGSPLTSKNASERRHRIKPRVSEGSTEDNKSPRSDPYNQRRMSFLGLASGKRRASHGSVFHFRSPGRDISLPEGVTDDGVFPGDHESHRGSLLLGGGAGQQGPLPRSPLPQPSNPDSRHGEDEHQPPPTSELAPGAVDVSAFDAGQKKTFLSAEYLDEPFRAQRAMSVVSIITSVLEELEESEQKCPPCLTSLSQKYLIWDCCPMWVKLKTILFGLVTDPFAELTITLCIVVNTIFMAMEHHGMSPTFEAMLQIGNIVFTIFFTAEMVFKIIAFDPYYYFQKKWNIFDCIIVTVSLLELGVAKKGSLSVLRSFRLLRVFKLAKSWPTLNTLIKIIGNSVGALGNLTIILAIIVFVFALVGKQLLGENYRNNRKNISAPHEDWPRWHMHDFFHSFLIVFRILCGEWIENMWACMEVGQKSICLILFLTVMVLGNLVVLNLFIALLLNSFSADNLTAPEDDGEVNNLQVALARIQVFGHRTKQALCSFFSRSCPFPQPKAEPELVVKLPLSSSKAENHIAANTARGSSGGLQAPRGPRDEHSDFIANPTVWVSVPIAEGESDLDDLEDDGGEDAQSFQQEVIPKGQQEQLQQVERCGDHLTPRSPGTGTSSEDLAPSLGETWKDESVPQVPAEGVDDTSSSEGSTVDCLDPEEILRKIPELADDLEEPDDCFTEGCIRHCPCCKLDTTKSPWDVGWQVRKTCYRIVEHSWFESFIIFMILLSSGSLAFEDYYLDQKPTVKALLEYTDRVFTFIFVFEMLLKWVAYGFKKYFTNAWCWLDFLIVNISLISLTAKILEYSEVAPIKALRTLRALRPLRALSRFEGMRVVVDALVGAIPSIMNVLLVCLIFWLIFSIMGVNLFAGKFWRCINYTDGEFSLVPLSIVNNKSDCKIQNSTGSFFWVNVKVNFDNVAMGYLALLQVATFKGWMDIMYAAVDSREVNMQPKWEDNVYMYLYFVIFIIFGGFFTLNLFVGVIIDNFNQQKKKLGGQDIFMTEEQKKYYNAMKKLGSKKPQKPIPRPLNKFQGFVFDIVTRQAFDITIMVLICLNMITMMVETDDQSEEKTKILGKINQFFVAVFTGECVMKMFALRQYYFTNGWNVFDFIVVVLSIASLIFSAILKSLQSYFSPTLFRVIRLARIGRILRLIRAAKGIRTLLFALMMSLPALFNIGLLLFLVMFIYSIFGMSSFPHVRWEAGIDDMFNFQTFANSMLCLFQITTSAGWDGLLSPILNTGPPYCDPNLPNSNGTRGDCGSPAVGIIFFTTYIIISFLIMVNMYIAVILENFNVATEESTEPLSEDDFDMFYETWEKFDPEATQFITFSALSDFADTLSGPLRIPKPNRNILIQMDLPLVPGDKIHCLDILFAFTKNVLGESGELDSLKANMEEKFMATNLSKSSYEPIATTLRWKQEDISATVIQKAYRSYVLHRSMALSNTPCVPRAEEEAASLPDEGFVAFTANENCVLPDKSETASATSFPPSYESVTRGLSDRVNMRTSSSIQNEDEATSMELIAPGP

Structure (SMILES): NC1=N[C@H](O)[C@H]2[C@H]3O[C@]4(O)O[C@@H]([C@@H](O)[C@@]2(N1)[C@@H]4O)[C@]3(O)CO [TTX, tetrodotoxin]
- IC50: > 50 µM
